Laboratory results published in ChEMBL document CHEMBL3872258, “Challenges in the development of an M4 PAM in vivo tool compound: The discovery of VU0467154 and unexpected DMPK profiles of close analogs” (Bioorg Med Chem Lett, 2017).
Positions count from the first letter of the chain named.

Columns and labels:
[1] = target: T1, Muscarinic acetylcholine receptor M5 (Homo sapiens, UniProt P08912); experiment: Binding affinity to human M5 receptor by radio-ligand binding assay
T1 sequence (P08912 whole entry): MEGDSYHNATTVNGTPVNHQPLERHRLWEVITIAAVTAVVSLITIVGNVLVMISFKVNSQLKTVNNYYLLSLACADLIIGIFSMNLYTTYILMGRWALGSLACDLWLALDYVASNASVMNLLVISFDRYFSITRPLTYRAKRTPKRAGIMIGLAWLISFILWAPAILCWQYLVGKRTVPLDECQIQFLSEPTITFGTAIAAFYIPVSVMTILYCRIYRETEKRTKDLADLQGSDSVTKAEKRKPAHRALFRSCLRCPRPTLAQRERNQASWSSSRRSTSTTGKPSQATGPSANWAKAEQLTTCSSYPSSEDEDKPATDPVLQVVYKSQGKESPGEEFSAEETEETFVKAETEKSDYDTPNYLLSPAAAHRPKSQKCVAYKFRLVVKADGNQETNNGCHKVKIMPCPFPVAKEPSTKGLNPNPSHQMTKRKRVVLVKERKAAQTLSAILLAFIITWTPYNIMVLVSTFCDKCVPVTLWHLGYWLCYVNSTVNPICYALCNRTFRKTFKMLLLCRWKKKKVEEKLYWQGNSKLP

[2] = target: T2, Muscarinic acetylcholine receptor M1 (Homo sapiens, UniProt P11229); experiment: Displacement of [3H]-N-Methylscopolamine from human M1 receptor expressed in CHOK1 cells; assay type: cell-based, CHO-K1
T2 sequence (P11229 whole entry): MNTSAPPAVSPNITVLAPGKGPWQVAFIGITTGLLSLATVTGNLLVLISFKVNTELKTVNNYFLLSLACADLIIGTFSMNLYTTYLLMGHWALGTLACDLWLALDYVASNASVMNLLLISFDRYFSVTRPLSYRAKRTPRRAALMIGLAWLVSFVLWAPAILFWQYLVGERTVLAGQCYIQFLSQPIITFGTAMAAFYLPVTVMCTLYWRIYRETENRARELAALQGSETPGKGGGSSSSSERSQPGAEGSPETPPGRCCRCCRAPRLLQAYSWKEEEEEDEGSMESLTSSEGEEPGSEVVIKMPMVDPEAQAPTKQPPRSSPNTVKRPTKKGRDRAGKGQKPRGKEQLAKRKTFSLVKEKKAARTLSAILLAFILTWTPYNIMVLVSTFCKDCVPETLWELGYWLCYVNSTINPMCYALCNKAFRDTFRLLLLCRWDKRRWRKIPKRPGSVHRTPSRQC

[3] = Unbound fraction in rat brain; assay type: ADME, tissue-based; conditions: for fraction unbound: brain
[4] = target: Muscarinic acetylcholine receptor M3 (Homo sapiens, UniProt P20309); experiment: Displacement of [3H]-N-Methylscopolamine from human M3 receptor expressed in CHOK1 cells; assay type: cell-based, CHO-K1
[5] = tested on: Rattus norvegicus; experiment: Reversal of amphetamine-induced hyperlocomotion in Sprague-Dawley rat at 10 mg/kg, po administered 30 mins after habituation in the chamber followed by amphetamine injection measured for 60 mins; assay type: functional
[6] = target: T3, Cytochrome P450 1A2 (Homo sapiens, UniProt P05177); experiment: Inhibition of CYP1A2 (unknown origin); assay type: ADME
T3 sequence (P05177 whole entry): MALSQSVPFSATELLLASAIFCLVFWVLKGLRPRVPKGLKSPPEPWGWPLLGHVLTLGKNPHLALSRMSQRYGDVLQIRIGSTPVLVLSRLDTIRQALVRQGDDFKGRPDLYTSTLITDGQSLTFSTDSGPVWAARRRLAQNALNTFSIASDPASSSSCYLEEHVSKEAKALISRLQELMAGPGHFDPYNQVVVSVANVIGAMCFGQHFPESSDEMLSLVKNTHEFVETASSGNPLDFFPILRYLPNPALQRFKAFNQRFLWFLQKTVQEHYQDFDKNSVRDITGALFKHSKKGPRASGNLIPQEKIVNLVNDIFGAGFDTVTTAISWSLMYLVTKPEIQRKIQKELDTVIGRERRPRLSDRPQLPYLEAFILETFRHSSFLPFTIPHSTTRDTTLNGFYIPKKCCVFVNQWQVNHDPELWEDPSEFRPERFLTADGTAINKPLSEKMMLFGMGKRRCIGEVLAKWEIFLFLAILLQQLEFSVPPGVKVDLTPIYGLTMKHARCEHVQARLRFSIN

[7] = Intrinsic clearance in rat; assay type: ADME
[8] = target: T4, Muscarinic acetylcholine receptor M1 (Rattus norvegicus, UniProt P08482); experiment: Binding affinity to rat M1 receptor by radio-ligand binding assay
T4 sequence (P08482 whole entry): T2 sequence (P11229 whole entry) with A5V, T254S, P309S, R320K, A337G, I413V

[9] = target: Cytochrome P450 3A4 (Homo sapiens, UniProt P08684); experiment: Inhibition of CYP3A4 (unknown origin); assay type: ADME
[10] = target: T5, Muscarinic acetylcholine receptor M2 (Rattus norvegicus, UniProt P10980); experiment: Binding affinity to rat M2 receptor by radio-ligand binding assay
T5 sequence (P10980 whole entry): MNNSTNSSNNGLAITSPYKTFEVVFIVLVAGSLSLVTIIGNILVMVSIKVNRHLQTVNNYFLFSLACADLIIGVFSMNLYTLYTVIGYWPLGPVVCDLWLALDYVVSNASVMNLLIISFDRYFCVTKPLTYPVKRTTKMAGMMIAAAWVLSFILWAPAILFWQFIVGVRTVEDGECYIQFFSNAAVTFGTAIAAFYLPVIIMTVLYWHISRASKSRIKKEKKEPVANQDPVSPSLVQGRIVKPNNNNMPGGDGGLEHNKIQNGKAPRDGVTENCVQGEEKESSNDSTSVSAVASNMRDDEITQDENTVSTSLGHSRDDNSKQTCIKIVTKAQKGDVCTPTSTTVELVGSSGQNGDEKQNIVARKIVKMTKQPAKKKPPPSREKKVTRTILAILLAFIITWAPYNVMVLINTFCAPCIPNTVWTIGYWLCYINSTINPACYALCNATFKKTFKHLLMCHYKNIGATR

[11] = Intrinsic clearance in human; assay type: ADME
[12] = Volume of distribution at steady state in Sprague-Dawley rat at 1 mg/kg, iv; assay type: ADME, organism-based; conditions: in vivo; for Vd: Sprague-Dawley, read-out: Vdss
[13] = target: Muscarinic acetylcholine receptor M3 (Rattus norvegicus, UniProt P08483); experiment: Binding affinity to rat M3 receptor by radio-ligand binding assay
Sequence of Muscarinic acetylcholine receptor M3 (Rattus norvegicus, UniProt P08483) (P08483 whole entry): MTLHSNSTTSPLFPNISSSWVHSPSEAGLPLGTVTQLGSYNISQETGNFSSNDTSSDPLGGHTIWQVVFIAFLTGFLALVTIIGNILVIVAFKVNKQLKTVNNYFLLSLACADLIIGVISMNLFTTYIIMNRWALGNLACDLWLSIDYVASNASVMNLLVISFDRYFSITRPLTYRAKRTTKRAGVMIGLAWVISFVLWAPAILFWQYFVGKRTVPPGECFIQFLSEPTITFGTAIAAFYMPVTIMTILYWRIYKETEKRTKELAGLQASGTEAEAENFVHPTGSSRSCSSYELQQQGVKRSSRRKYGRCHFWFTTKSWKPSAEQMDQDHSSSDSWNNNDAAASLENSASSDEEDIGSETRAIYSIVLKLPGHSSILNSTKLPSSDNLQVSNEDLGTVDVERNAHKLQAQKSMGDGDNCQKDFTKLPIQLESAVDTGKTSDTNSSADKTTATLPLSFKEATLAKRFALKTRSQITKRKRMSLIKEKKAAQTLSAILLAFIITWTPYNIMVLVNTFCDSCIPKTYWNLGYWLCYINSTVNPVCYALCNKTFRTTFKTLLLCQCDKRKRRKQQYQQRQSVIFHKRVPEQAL

Sequence of Muscarinic acetylcholine receptor M3 (Homo sapiens, UniProt P20309) (P20309 whole entry): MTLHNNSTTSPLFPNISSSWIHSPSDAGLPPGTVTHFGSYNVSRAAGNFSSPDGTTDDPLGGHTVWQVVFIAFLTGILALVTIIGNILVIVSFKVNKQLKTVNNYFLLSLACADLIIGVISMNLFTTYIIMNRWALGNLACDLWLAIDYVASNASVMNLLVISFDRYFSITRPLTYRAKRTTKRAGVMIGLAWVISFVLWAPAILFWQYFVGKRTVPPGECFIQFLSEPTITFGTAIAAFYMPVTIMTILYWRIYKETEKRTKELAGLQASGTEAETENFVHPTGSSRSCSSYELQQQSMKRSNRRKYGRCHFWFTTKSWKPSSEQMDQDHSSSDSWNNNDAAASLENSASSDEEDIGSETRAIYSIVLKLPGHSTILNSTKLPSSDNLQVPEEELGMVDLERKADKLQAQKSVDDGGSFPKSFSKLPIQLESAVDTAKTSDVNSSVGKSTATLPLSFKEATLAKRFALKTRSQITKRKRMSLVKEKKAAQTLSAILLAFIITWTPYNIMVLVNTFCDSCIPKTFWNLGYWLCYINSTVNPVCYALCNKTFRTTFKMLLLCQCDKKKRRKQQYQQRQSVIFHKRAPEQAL
Sequence of Cytochrome P450 3A4 (P08684 whole entry): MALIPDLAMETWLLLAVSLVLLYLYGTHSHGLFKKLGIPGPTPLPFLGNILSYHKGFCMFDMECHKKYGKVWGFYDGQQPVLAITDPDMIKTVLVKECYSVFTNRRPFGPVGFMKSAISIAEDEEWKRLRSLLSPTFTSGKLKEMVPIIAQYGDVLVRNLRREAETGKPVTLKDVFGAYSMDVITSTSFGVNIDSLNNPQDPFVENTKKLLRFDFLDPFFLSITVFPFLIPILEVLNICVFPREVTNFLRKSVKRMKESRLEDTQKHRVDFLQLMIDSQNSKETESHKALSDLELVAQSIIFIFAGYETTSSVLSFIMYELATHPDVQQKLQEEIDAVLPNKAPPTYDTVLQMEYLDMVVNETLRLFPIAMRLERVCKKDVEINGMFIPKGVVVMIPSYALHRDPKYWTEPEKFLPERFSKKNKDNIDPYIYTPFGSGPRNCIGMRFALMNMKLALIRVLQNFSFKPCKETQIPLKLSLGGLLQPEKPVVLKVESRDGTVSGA

Structure (SMILES) | EC50 [1] | EC50 [2] | fraction unbound [3] | EC50 [4] | Activity [5] | IC50 [6] | CLint scaled [7] | EC50 [8] | IC50 [9] | EC50 [10] | CLint scaled [11] | Vd [12] | EC50 [13] | Fu [3] | Vdss [12]
Cc1nnc2sc(C(=O)NCc3ccc(S(=O)(=O)C(F)F)cc3)c(N)c2c1C | > 30 µM | > 30 µM | 0.062 | > 30 µM | 49.3% | > 30 µM | 48.1 mL/min/kg | > 30 µM | > 30 µM | > 30 µM | 15.6 mL/min/kg | 2.9 L/kg | > 30 µM |  | 
Cc1nnc2sc(C(=O)NCc3ccc(S(=O)(=O)C(F)(F)F)cc3)c(N)c2c1C | > 30 µM | > 30 µM |  | > 30 µM | 55.3% | > 30 µM | 47.7 mL/min/kg | > 30 µM | > 30 µM | > 30 µM | 19.8 mL/min/kg |  | > 30 µM | 0.067 | 3.1 L/kg
Cc1nnc2sc(C(=O)NCc3ccc(S(F)(F)(F)(F)F)cc3)c(N)c2c1C | > 30 µM | > 30 µM | 0.004 | > 30 µM | 66.3% | > 30 µM | 95.9 mL/min/kg | > 30 µM | > 30 µM | > 30 µM | 52.8 mL/min/kg | 3.1 L/kg | > 30 µM |  | 
